Common to all, as to assay type: cell membranes
Experiment [1] deals with Cannabinoid receptor 1 (Rattus norvegicus) (UniProt P20272). Kind of experiment: Binding affinity towards CB1 receptor in rat brain membrane by displacement of [3H]SR-141,716A relative to HU-210. (Loss of bound radioactivity is the signal in a displacement assay; it reports binding, not function.)
Experiment [2] has as its target T1, Cannabinoid receptor 1 (Rattus norvegicus, UniProt P20272). Kind of experiment: Binding affinity towards cannabinoid CB1 receptor in rat brain membrane by displacement of [3H]SR-141,716A.
The target in experiment [3] is T1, Cannabinoid receptor 1. Nature of the experiment: Binding affinity towards cannabinoid CB1 receptor in rat brain membrane by displacement of [3H]SR-141,716A at 50 uM.

Each structure is given as a SMILES string.

Cannabinoid receptor 1 (Rattus norvegicus), sequence (P20272 whole entry): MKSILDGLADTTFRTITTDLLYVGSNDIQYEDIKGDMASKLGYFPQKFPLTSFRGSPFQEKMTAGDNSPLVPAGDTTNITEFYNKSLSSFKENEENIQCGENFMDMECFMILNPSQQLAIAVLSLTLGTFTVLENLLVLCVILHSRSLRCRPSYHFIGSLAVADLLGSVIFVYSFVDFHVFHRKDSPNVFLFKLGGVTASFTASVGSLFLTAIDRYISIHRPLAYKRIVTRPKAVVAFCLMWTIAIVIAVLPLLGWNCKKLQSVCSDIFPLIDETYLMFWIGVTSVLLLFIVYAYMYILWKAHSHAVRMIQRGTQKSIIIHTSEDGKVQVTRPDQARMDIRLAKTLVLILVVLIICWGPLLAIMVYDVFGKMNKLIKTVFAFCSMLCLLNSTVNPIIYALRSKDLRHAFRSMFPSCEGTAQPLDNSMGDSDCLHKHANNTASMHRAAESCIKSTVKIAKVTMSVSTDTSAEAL
T1 sequence (P20272 whole entry): as above

The Ki is a measure of affinity in units of concentration, obtained from inhibition or displacement. Read a low Ki as tighter binding. `CCCCCCCCCCCCCCCCOCC(O)CO` (centres undefined) came in with a Krel in experiment [1] of over 12500. This compound returned a Ki at Cannabinoid receptor 1 [2] of over 50 µM.
Compound `CC(C)=CCC/C(C)=C/COC(CO)CO` had a Krel in experiment [1] of over 12500. The same compound had a Ki at Cannabinoid receptor 1 [2] of over 50 µM.
On the same counts, the results for `CCCCC/C=C\C/C=C\CCCCCCCCOC(CO)CO` are 5620 and 22.5 µM.
In experiment [1], `CCCCCCCC/C=C\CCCCCCCCOC(CO)CO` gave a Krel of 6400. The compound also had a Ki on Cannabinoid receptor 1 [2] of 25.6 µM.
For the compound `CCCCC/C=C\C/C=C\C/C=C\C/C=C\CCCCOCC(O)CO` (stereo in doubt; 5b), the Krel in experiment [1] was 625.
In the case of `CCCCCC[C@@H]1C[C@@H]1C#CCCCCCCCCOC(CO)CO`, the Krel in experiment [1] was over 125000. Also, on Cannabinoid receptor 1 [2], the Ki was over 50 µM.
In the case of `CCCCCCCC[C@@H]1C[C@@H]1CCCCCCCCCCCCOC(CO)CO` (single isomer, unassigned), the Krel in experiment [1] was over 125000. The compound further displayed a Ki at Cannabinoid receptor 1 [2] of over 50 µM.
In turn, `CCCCC/C=C\C/C=C\C/C=C\C/C=C\CCCCOCC(O)CO` (stereo in doubt; 5a) [listing 1 of 2 here] had a Ki at Cannabinoid receptor 1 [2] of 5 µM.
In turn, `CCCCCCCC/C=C\CCCCCCCCCCCCOC(CO)CO` yielded a Krel in experiment [1] of over 12500. At Cannabinoid receptor 1 [3], this compound gave a Ki of over 50 µM.
Take `CC(C)=CCC/C(C)=C/CC/C(C)=C/COC(CO)CO`: the Krel in experiment [1] is over 12500. The compound also showed an inhibition constant (Ki) on Cannabinoid receptor 1 [2] of over 50 µM.
As for `CCCCCC/C=C/C#CCCCCCCCCOC(CO)CO`, in experiment [1], the Krel is over 125000. At Cannabinoid receptor 1 [3], this compound registered a Ki of over 50 µM.
`CCCCCCCCCCCCCCCCOC(CO)CO` yielded a Krel in experiment [1] of over 12500. At Cannabinoid receptor 1 [2], the Ki is over 50 µM.
Consider `CCCCC/C=C\C/C=C\C/C=C\CCCCCOC(CO)CO`, for which, in experiment [1], the Krel came to 3480. The same compound showed a Ki at Cannabinoid receptor 1 [2] of 13.9 µM.
For `CCCCCCCC[C@@H]1C[C@@H]1CCCCCCCCOC(CO)CO`, the Krel in experiment [1] was over 125000. At Cannabinoid receptor 1 [2], the Ki was over 50 µM.
As to `CC(C)=CCC/C(C)=C/COCC(O)CO` (centres undefined), the Krel in experiment [1] is over 12500. Moreover, at Cannabinoid receptor 1 [2], the Ki is over 50 µM.
For the compound `CCCCC/C=C\C/C=C\C/C=C\C/C=C\CCCCOCC(O)CO` (stereo in doubt; 5a) [listing 2 of 2 here], the Krel in experiment [1] was determined as 1250.

The values above are taken from ChEMBL document CHEMBL1136419, “Homologues and isomers of noladin ether, a putative novel endocannabinoid: interaction with rat cannabinoid CB(1) receptors” (Bioorg Med Chem Lett, 2003).
